Test results: US8916557B2, “Substituted 4-Aryl-N-phenyl-1,3,5-triazin-2-amines” (Bayer Intellectual Property GmbH, priority 2011, dated 2014)

Legend:
[1] = test system: Caco-2 human colorectal carcinoma; experiment: Proliferation assay (crystal violet), Caco-2; format: cell-based; settings: CACO-2 cells, read-out: Inhibition of CACO-2 cell proliferation
[2] = test system: NCI-H460, human non-small cell lung carcinoma cells; experiment: Proliferation assay (crystal violet), NCI-H460; format: cell-based; settings: read-out: Inhibition of H460 cell proliferation (activity range)
Experimental: (§1) Cultivated tumour cells (NCI-H460, human non-small cell lung carcinoma cells, ATCC HTB-177; DU 145, hormone-independent human prostate carcinoma cells, ATCC HTB-81; HeLa-MaTu, human cervical carcinoma cells, EPO-GmbH, Berlin; HeLa-MaTu-ADR, multidrug-resistant human cervical carcinoma cells, EPO-GmbH, Berlin; HeLa human cervical tumour cells, ATCC CCL-2; Caco-2 human colorectal carcinoma, ATCC HTB-37; B16F10 mouse melanoma cells, ATCC CRL-6475) were plated at a density of 5000 cells/well (DU145, HeLa-MaTu-ADR), 3000 cells/well (NCI-H460, HeLa-MaTu, HeLa), 1500 cells/well (Caco-2), or 1000 cells/well (B16F10) in a 96-well multititer plate in 200 μL of their respective growth medium supplemented 10% fetal calf serum. After 24 hours, the cells of one plate (zero-point plate) were stained with crystal violet (see below), while the medium of the other plates was replaced by fresh culture medium (200 μl), to which the test substances were added in various concentrations (0 μM, as well as in the range of 0.001-10 μM; the final concentration of the solvent dimethyl sulfoxide was 0.5%). The cells were incubated for 4 days in the presence of test substances. Cell proliferation was determined by staining the cells with crystal violet: the cells were fixed by adding 20 μl/measuring point of an 11% glutaric aldehyde solution for 15 minutes at room temperature. After three washing cycles of the fixed cells with water, the plates were dried at room temperature. The cells were stained by adding 100 μl/measuring point of a 0.1% crystal violet solution (pH 3.0). After three washing cycles of the stained cells with water, the plates were dried at room temperature. The dye was dissolved by adding 100 μl/measuring point of a 10% acetic acid solution. The extinction was determined by photometry at a wavelength of 595 nm. The change of cell number, in percent, was calculated by normalization of the measured values to the extinction values of the zero-point plate (=0%) and the extinction of the untreated (0 μm) cells (=100%). The IC50 values were determined by means of a 4 parameter fit.

CDK9/CycT1 = target: T1, CDK9/CycT1 (Homo sapiens, UniProt P50750); experiment: CDK9/CycT1 kinase assay (TR-FRET); format: biochemical; settings: Method 1, 10 μM ATP
T1 construct: Recombinant full-length His-tagged human CDK9 and CycT1; His; purchased Invitrogen PV4131; host or cells: insect cells
Summary of the method: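 Full-length His-tagged human CDK9/CycT1 (insect-cell expressed), 15 min compound pre-incubation, then 25 min at 22 °C with 10 µM ATP (final) and 1 µM biotinylated peptide (final) in Tris pH 8.0/MgCl2 buffer. Phospho-substrate detected by TR-FRET (anti-RB pSer807/pSer811, Eu anti-mouse IgG, streptavidin-XL665); 665/622 nm emission ratio as read-out.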

[3] = test system: B16F10 mouse melanoma cells; experiment: Proliferation assay (crystal violet), B16F10; format: cell-based; settings: B16-F10, read-out: Inhibition of B16F10 cell proliferation
Experimental: as §1

[4] = test system: HeLa-MaTu-ADR, multidrug-resistant human cervical carcinoma cells; experiment: Proliferation assay (crystal violet), HeLa-MaTu-ADR; format: cell-based; settings: read-out: Inhibition of HeLa/MaTu/ADR cell proliferation
Experimental: as §1

[5] = test system: HeLa human cervical tumour cells; experiment: Proliferation assay (crystal violet), HeLa; format: cell-based; settings: read-out: Inhibition of HeLa cell proliferation
[6] = test system: DU 145, hormone-independent human prostate carcinoma cells; experiment: Proliferation assay (crystal violet), DU 145; format: cell-based; settings: DU145 cells, read-out: Inhibition of DU145 cell proliferation
Caco-2 permeation assay = format: in vitro ADME; settings: human
CDK2/CycE = target: T2, CDK2/CycE (Homo sapiens, UniProt P24941); experiment: CDK2/CycE kinase assay (TR-FRET); format: biochemical; settings: Method 2, 10 μM ATP
T2 construct: GST; purchased ProQinase GmbH (Freiburg, Germany); host or cells: insect cells (Sf9)
Summary of the method: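 GST-CDK2/GST-CycE (Sf9-expressed, ~130 ng/ml) pre-incubated with compound 15 min, then reacted 25 min at 22 °C with 10 μM ATP and 0.75 μM biotinylated peptide in Tris pH 8.0. Phospho-substrate detected by TR-FRET (anti-pRb pSer807/811, Eu/XL665), 665/620 nm ratio.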

T1 sequence (P50750 whole entry): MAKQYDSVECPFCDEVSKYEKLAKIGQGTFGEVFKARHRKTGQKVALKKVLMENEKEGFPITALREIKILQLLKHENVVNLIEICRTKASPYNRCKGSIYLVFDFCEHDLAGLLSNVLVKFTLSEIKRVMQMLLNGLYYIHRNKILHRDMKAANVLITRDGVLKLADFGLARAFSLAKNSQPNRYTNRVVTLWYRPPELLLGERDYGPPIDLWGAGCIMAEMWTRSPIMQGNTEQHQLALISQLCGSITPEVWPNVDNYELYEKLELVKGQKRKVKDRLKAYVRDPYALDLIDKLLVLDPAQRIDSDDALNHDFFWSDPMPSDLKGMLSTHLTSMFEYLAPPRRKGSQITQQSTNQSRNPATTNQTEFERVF
T1 sequence (O60563 whole entry partner): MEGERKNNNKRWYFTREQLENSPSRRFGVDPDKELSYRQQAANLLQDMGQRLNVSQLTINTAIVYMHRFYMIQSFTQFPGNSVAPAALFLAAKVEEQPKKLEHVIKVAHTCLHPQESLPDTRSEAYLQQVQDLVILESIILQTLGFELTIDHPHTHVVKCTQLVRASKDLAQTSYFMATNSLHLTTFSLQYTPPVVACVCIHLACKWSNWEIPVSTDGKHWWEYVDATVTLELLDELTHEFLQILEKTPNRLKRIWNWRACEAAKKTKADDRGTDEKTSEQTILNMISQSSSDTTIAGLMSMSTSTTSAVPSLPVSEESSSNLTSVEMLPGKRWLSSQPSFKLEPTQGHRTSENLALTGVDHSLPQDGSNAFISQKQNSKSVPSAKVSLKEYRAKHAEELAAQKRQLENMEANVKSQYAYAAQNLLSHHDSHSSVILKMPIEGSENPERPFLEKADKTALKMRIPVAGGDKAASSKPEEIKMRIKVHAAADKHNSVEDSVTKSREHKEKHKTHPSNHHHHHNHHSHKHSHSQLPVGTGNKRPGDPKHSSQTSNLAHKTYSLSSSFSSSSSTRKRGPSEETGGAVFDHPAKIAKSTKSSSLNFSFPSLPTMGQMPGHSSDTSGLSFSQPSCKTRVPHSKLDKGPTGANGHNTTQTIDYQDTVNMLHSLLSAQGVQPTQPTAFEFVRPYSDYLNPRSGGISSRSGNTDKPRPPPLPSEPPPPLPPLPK

Row | SMILES | IC50 [1] | IC50 [2] | IC50 (CDK9/CycT1) | IC50 [3] | IC50 [4] | IC50 [5] | IC50 [6] | efflux ratio at 2 h, 2 μM (Caco-2 permeation assay; Caco-2, pH 7.2) | Papp A→B at 2 h, 2 μM (Caco-2 permeation assay; Caco-2 monolayer, 2 μM test compound, 2 h, pH 7.2, read-out: Papp A-B (Mari)) | Papp B→A at 2 h, 2 μM (Caco-2 permeation assay; Caco-2 monolayer, 2 μM test compound, 2 h, pH 7.2, read-out: Papp B-A (Mari)) | IC50 (CDK2/CycE)
1 | CS(=O)(=O)Cc1cccc(Nc2ncnc(-c3ccc(F)cc3OCc3ccc(C(F)(F)F)cc3)n2)c1 [Example 73, 4-(4-Fluoro-2-{[4-(trifluoromethyl)benzyl]-oxy}phenyl)-N-{3-[(methylsulfonyl)-methyl]phenyl}-1,3,5-triazin-2-amine] |  |  | 12 nM |  |  | 1100 nM |  |  |  |  | ≥ 20000 nM
2 | CS(=O)(=O)Cc1cccc(Nc2ncnc(-c3ccc(F)cc3OCc3cccc(C(F)(F)F)c3)n2)c1 [Example 69, 4-(4-Fluoro-2-{[3-(trifluoromethyl)benzyl]oxy}phenyl)-N-{3-[(methylsulfonyl)-methyl]phenyl}-1,3,5-triazin-2-amine] |  |  | 4 nM |  |  | 1300 nM |  |  |  |  | 1300 nM
3 | [2H]C([2H])([2H])Oc1ccccc1-c1ncnc(Nc2cccc(CS(C)(=O)=O)c2)n1 [Example 22, 4-{2-[(^2H3)methyloxy]phenyl}-N-{3-[(methylsulfonyl)methyl]phenyl}-1,3,5-triazin-2-amine] |  |  | 23 nM |  |  | 1400 nM |  |  |  |  | 2500 nM
4 | CS(=O)(=O)Cc1cccc(Nc2ncnc(-c3ccccc3OCc3ccc(F)cc3)n2)c1 [Example 25, 4-{2-[(4-Fluorobenzyl)oxy]phenyl}-N-{3-[(methylsulfonyl)methyl]phenyl}-1,3,5-triazin-2-amine] |  |  | 7 nM |  |  | 760 nM |  |  |  |  | 1100 nM

Results, then the compound that gave them:

Row | IC50 [1] | IC50 [2] | IC50 (CDK9/CycT1) | IC50 [3] | IC50 [4] | IC50 [5] | IC50 [6] | efflux ratio at 2 h, 2 μM (Caco-2 permeation assay; Caco-2, pH 7.2) | Papp A→B at 2 h, 2 μM (Caco-2 permeation assay; Caco-2 monolayer, 2 μM test compound, 2 h, pH 7.2, read-out: Papp A-B (Mari)) | Papp B→A at 2 h, 2 μM (Caco-2 permeation assay; Caco-2 monolayer, 2 μM test compound, 2 h, pH 7.2, read-out: Papp B-A (Mari)) | IC50 (CDK2/CycE) | SMILES
5 | 200 nM | 270 nM | 6 nM | 250 nM | 220 nM | 250 nM | 230 nM |  |  |  |  | CS(=O)(=O)Cc1cccc(Nc2ncnc(-c3ccc(F)cc3OCc3ccc(F)c(F)c3)n2)c1 [Example 86, 4-{2-[(3,4-Difluoro-benzyl)oxy]-4-fluorophenyl}-N-{3-[(methylsulfonyl)-methyl]phenyl}-1,3,5-triazin-2-amine]
6 |  |  | 3 nM |  |  | 530 nM |  | 0.43 | 16.9 ×10⁻⁶ cm/s | 7.2 ×10⁻⁶ cm/s | 290 nM | CS(=O)(=O)Cc1cccc(Nc2ncnc(-c3ccccc3OCc3cccc(F)c3)n2)c1 [Example 26, 4-{2-[(3-Fluorobenzyl)oxy]phenyl}-N-{3-[(methylsulfonyl)methyl]phenyl}-1,3,5-triazin-2-amine]
7 |  |  | 9 nM |  |  | 280 nM |  |  |  |  | 190 nM | COc1cc(F)ccc1-c1ncnc(Nc2cc(Cl)cc(CS(C)(=O)=O)c2)n1 [Example 39, N-{5-Chloro-3-[(methylsulfonyl)methyl]phenyl}-4-(4-fluoro-2-methoxyphenyl)-1,3,5-triazin-2-amine]
8 |  |  | 12 nM |  |  | 600 nM |  |  |  |  | 610 nM | COc1cc(F)ccc1-c1ncnc(Nc2cccc(CS(=O)(=O)CCO)c2)n1 [Example 14, 2-[(3-{[4-(4-Fluoro-2-methoxyphenyl)-1,3,5-triazin-2-yl]amino}benzyl)sulfonyl]ethanol]
9 | 320 nM | 310 nM | 3 nM | 490 nM | 280 nM | 340 nM | 350 nM |  |  |  |  | CS(=O)(=O)Cc1cccc(Nc2ncnc(-c3ccc(F)cc3OCc3cc(F)cc(F)c3F)n2)c1 [Example 84, 4-{4-Fluoro-2-[(2,3,5-trifluorobenzyl)oxy]phenyl}-N-{3-[(methylsulfonyl)methyl]-phenyl}-1,3,5-triazin-2-amine]
10 |  |  | 13 nM |  |  | 1000 nM |  |  |  |  | 1600 nM | Cc1ccc(COc2cc(F)ccc2-c2ncnc(Nc3cccc(CS(C)(=O)=O)c3)n2)cc1 [Example 77, 4-{4-Fluoro-2-[(4-methylbenzyl)oxy]phenyl}-N-{3-[(methylsulfonyl)-methyl]phenyl}-1,3,5-triazin-2-amine]
